Test results published in patent publication US20220169646A1, “HETEROCYCLIC COMPOUNDS AND USES THEREOF” (Nuvation Bio Inc., priority 2019, published 2022).

Tests used:
A427 cells = test: Cytotoxicity assay in A427 cell line (resazurin); format: cell-based; conditions: Homo sapiens, A-427, A427 lung epithelial cell line, 72 hr incubation, inhibition of proliferation
Procedure: A427 (HTB-53; ATCC), a lung epithelial cell line, was seeded in medium (MEM, 41090101; Gibco) at a cell count of 1500 cells per 100 μL per well in a 96 well edge plate (167425; ThermoFisher). Cells were allowed to grow at 37° C. for 24 hr in 5% CO2 environment (culture conditions) in a Nuaire incubator (humidified). Serially diluted test compounds (100 μL) within the desired testing concentration ranges were added to the culture plate and the cells were further incubated in culture conditions for 72 hr. The experiment was terminated at the designated incubation time by replacing the medium with 100 μL of 1 mM of resazurin (R7017; Sigma) prepared in culture medium, and the plates were further incubated in culture conditions for 4-6 hr. Fluorescence was recorded using a multimodal plate reader (Biotek Synergy Neo) at an excitation wavelength of 535 nm and emission wavelength of 590 nm to obtain relative fluorescence units. Data were analysed as follows: the background fluorescence (blank containing only medium) value was subtracted from each reading and normalized with the vehicle control (DMSO treated cells) to obtain percent survival/proliferation. Percent survival was subtracted from 100 to get the percent inhibition of proliferation which was used to calculate IC50 values. Potency of compounds in other cell lines (such as A549, As-Pc-1, Panc 10.05, A172, U-87 MG) may be determined in an analogous manner.

WEE1 kinase enzyme = biological target: T1, WEE1 kinase enzyme (Homo sapiens, UniProt P30291); test: WEE1 IC50 determination, LanthaScreen Terbium Labeled TR-FRET kinase assay; format: biochemical; conditions: WEE1 enzyme 1 nM, ATP 10 μM, 1 h
T1 construct: purchased Invitrogen, Life Technologies PR7373A
Procedure: IC50 values of compounds against WEE1 kinase enzyme were determined by LanthaScreen™ Terbium Labeled TR-FRET assay. Kinase assays were performed in 1× kinase buffer (#PV6135, Invitrogen, Life Technologies Grand Island, N.Y.) where total reaction volume was 10 μL in low-volume 384-well plates (#4511, Corning). Serially diluted compounds (3-fold) were incubated with WEE1 Enzyme (1 nM) (#PR7373A, Invitrogen, Life Technologies, Grand Island, N.Y.) for 10 min, and a mixture of ATP (10 μM) (#A1852, Sigma, St. Louis, Mo.) and fluorescent-PolyGT substrate (200 nM) (#PV3610, Invitrogen, Life Technologies, Grand Island, N.Y.) was added and incubated in the dark at room temperature for 1 h. After 1 h, a 10 μL stop solution containing terbium labeled antibody (4 nM) (#PV3529, Invitrogen, Life Technologies Grand Island, N.Y.) and EDTA (#E5134, Sigma, St. Louis, Mo.) (20 mM) in TR-FRET dilution buffer (#PV3574, Invitrogen, Life Technologies, Grand Island, N.Y.) was added. Readings were taken in a Synergy Neo Plate reader (BioTek, Winooski, Vt.) at single excitation of 340 nm and dual emission at 495 nm and 520 nm respectively.
The % activity of test samples was calculated as (Sample−Min)*100/(Max−Min). [Max: DMSO control, complete reaction with enzyme & DMSO and Min: No enzyme & DMSO]. Percent inhibition (100−% activity) was fitted to the “four-parameter logistic model” in XLfit for determination of IC50 values.

[1] = system: phospho-CDC2 (Tyr15) in A427 cells; test: Phospho-CDC2 (Tyr15) sandwich ELISA in A427 cells; format: cell-based; conditions: Homo sapiens, A-427, PathScan Phospho-CDC2 (Tyr15) ELISA, specified time (e.g., 24 hr)
Procedure: Changes in the levels of phospho-CDC2 following treatment of cells with test compounds were assessed by enzyme-linked immunosorbent assay (ELISA). A427 cells were plated in 6-well plates and cultured for 24 hr to approximately 80-90% confluency. Medium was replaced, and the cells were treated with the vehicle control or the test compound at several different concentrations. After incubation of treated cells in cell culture conditions for a specified time (e.g., 24 hr), cells were rinsed with ice-cold PBS and lysed in 1× cell lysis buffer containing protease inhibitors and phosphatase inhibitors. The cells were scraped from the plate with a cell scraper after a brief incubation on ice and transferred to a centrifuge tube, and then subjected to three freeze-thaw cycles in liquid nitrogen and a 37° C. water bath for further lysis. The lysates were centrifuged to pellet cell debris (using, for example, a 10 min centrifugation of 2000×g at 4° C.) and the supernatants transferred to fresh tubes on ice. The protein concentrations of the samples were estimated by the Bradford method or equivalent. The ELISA was carried out with the PathScan® Phospho-CDC2 (Tyr15) Sandwich ELISA Kit (Cat. #7176, Cell Signaling Technology, Danvers, Mass.) according to the manufacturer's instructions.

T1 sequence (P30291 whole entry): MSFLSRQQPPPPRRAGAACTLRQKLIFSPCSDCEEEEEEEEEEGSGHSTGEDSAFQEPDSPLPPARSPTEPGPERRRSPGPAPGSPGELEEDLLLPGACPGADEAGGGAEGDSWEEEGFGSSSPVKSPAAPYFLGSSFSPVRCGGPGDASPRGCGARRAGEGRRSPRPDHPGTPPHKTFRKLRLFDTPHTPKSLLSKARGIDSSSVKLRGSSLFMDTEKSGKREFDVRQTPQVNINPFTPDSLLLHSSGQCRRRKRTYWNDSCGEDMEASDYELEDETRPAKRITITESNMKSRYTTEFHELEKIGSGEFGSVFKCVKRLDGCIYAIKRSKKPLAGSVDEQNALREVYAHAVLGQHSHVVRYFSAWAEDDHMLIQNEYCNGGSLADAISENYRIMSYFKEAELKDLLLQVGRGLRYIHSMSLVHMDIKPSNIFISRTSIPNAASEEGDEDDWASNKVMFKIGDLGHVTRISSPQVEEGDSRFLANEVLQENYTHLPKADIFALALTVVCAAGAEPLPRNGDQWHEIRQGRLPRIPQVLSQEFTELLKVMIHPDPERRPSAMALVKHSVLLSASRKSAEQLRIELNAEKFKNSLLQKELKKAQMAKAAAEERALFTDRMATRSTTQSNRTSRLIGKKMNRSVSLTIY

CC(C)n1cc(-n2c3nc(Nc4ccc5c(c4)CCNC5)ncc3c(=O)n2C(C)C)cn1 [Compound 1.1, 2-isopropyl-1-(1-isopropyl-1H-pyrazol-4-yl)-6-((1,2,3,4-tetrahydroisoquinolin-6-yl)amino)-1,2-dihydro-3H-pyrazolo[3,4-d]pyrimidin-3-one]
IC50 (A427 cells): > 30000 nM
IC50 (WEE1 kinase enzyme): 107 nM

COCC(C)(C)c1cccc(-n2c3nc(Nc4ccc5c(c4)CNCC5)ncc3c(=O)n2C(C)C)n1 [Compound 1.2, 2-isopropyl-1-(6-(1-methoxy-2-methylpropan-2-yl)pyridin-2-yl)-6-((1,2,3,4-tetrahydroisoquinolin-7-yl)amino)-1,2-dihydro-3H-pyrazolo[3,4-d]pyrimidin-3-one]
IC50 (A427 cells): 295 nM
IC50 (WEE1 kinase enzyme): 4 nM

CC(C)n1c(=O)c2cnc(Nc3ccc4c(c3)CCNC4)nc2n1-c1cccc(C(=O)N(C)C)c1 [Compound 1.3, 3-(2-isopropyl-3-oxo-6-((1,2,3,4-tetrahydroisoquinolin-6-yl)amino)-2,3-dihydro-1H-pyrazolo[3,4-d]pyrimidin-1-yl)-N,N-dimethylbenzamide]
IC50 (A427 cells): 8160 nM
IC50 (WEE1 kinase enzyme): 2 nM

CC(C)n1c(=O)c2cnc(Nc3ccc4c(c3)CNCC4)nc2n1-c1cccc(C(=O)N(C)C)c1 [Compound 1.4, 3-(2-isopropyl-3-oxo-6-((1,2,3,4-tetrahydroisoquinolin-7-yl)amino)-2,3-dihydro-1H-pyrazolo[3,4-d]pyrimidin-1-yl)-N,N-dimethylbenzamide]
IC50 (A427 cells): 3510 nM
IC50 (WEE1 kinase enzyme): 3 nM

CC(C)N1CCc2cc(Nc3ncc4c(=O)n(C(C)C)n(-c5ccnc(C(C)(C)C)c5)c4n3)ccc2C1 [Compound 1.5, 1-(2-(tert-butyl)pyridin-4-yl)-2-isopropyl-6-((2-isopropyl-1,2,3,4-tetrahydroisoquinolin-6-yl)amino)-1,2-dihydro-3H-pyrazolo[3,4-d]pyrimidin-3-one]
IC50 (A427 cells): 2070 nM
IC50 (WEE1 kinase enzyme): 21 nM

CC(C)n1c(=O)c2cnc(Nc3ccc4c(c3)CNCC4)nc2n1-c1ccc(C#N)cc1 [Compound 1.85, 4-(2-isopropyl-3-oxo-6-(1,2,3,4-tetrahydroisoquinolin-7-ylamino)-2,3-dihydro-1H-pyrazolo[3,4-d]pyrimidin-1-yl)benzonitrile]
IC50 (A427 cells): 1860 nM
IC50 [1]: 278 nM
IC50 (WEE1 kinase enzyme): 5 nM

CC(C)n1c(=O)c2cnc(Nc3ccc4c(c3)CCNC4)nc2n1-c1ccc(C#N)cc1 [Compound 1.86, 4-(2-isopropyl-3-oxo-6-(1,2,3,4-tetrahydroisoquinolin-6-ylamino)-2,3-dihydro-1H-pyrazolo[3,4-d]pyrimidin-1-yl)benzonitrile]
IC50 (A427 cells): 1070 nM
IC50 (WEE1 kinase enzyme): 8 nM

CC(C)n1c(=O)c2cnc(Nc3ccc4c(c3)CCN(CCCN)C4)nc2n1-c1ccnc(C(C)(C)C)c1 [Compound 1.87, 2,2,2-trifluoroacetaldehyde compound with 6-((2-(3-aminopropyl)-1,2,3,4-tetrahydroisoquinolin-6-yl)amino)-1-(2-(tert-butyl)pyridin-4-yl)-2-isopropyl-1,2-dihydro-3H-pyrazolo[3,4-d]pyrimidin-3-one]
IC50 (WEE1 kinase enzyme): 4 nM
